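Compound exposure: 48 hours, 5 concentrations, 96-well plates. Abbreviation: GI50, concentration required for 50% inhibition of growth.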 Active and inactive are the calls of the source. Rule as the data show it: active = GI50 up to about 1.1 µM and inactive = higher.
Experiments:
Experiment in all cases: inhibition of tumour cell growth, NCI panel, 48 h
SW-620 = test system: SW-620
EKVX = test system: EKVX
MDA-N = test system: MDA-N
COLO 205 = test system: COLO 205
SF-295 = test system: SF-295
SNB-75 = test system: SNB-75
NCI-H460 = test system: NCI-H460
HOP-92 = test system: HOP-92
LOX IMVI = test system: LOX IMVI
MOLT-4 = test system: MOLT-4
NCI-H226 = test system: NCI-H226
CCRF-CEM = test system: CCRF-CEM
RXF 393 = test system: RXF 393
XF498 = test system: XF498
SF-539 = test system: SF-539
SF-268 = test system: SF-268
NCI-H23 = test system: NCI-H23
HCC 2998 = test system: HCC 2998
M14 = test system: M14
RPMI-8226 = test system: RPMI-8226
BT-549 = test system: BT-549
OVCAR-3 = test system: OVCAR-3
SK-MEL-2 = test system: SK-MEL-2
SN12C = test system: SN12C
LXFL 529 = test system: LXFL 529
Malme-3M = test system: Malme-3M
TK-10 = test system: TK-10
SNB-78 = test system: SNB-78
ACHN = test system: ACHN
SR = test system: SR
UACC-62 = test system: UACC-62
HT-29 = test system: HT-29
NCI-H522 = test system: NCI-H522
RXF 631 = test system: RXF 631
OVCAR-8 = test system: OVCAR-8
IGROV-1 = test system: IGROV-1
SK-MEL-28 = test system: SK-MEL-28
KM12 = test system: KM12
OVCAR-5 = test system: OVCAR-5
DMS-273 = test system: DMS-273
DLD-1 = test system: DLD-1
MDA-MB-231 = test system: MDA-MB-231
A549 = test system: A549
A498 = test system: A498
MDA-MB-435 = test system: MDA-MB-435
DU-145 = test system: DU-145
OVCAR-4 = test system: OVCAR-4
PC-3 = test system: PC-3
786-0 = test system: 786-0
HOP-62 = test system: HOP-62
UO-31 = test system: UO-31
SK-OV-3 = test system: SK-OV-3
HOP-18 = test system: HOP-18
HCT-116 = test system: HCT-116
T47D = test system: T47D
MCF7 = test system: MCF7
SK-MEL-5 = test system: SK-MEL-5
CAKI-1 = test system: CAKI-1
Hs-578T = test system: Hs-578T
K562 = test system: K562
U-251 = test system: U-251
KM-20L2 = test system: KM-20L2
HCT-15 = test system: HCT-15
UACC-257 = test system: UACC-257
HL-60 = test system: HL-60
SNB-19 = test system: SNB-19
M19-MEL = test system: M19-MEL
DMS-114 = test system: DMS-114

## COc1cccc2c1C(=O)c1c(O)c3c(c(O)c1C2=O)C[C@@](O)(C(=O)CO)C[C@@H]3OC1CC(N)C(OC)C(C)O1 (some centres undefined)
SW-620
  GI50: 24.9 nM (active)
EKVX
  GI50: 522 nM (active)
MDA-N
  GI50: 352 nM (active)
COLO 205
  GI50: 209 nM (active)
SF-295
  GI50: 20.6 nM (active)
SNB-75
  GI50: 28.2 nM (active)
NCI-H460
  GI50: < 10 nM (active)
HOP-92
  GI50: 61.2 nM (active)
LOX IMVI
  GI50: 22.8 nM (active)
MOLT-4
  GI50: < 10 nM (active)
NCI-H226
  GI50: 55.3 nM (active)
CCRF-CEM
  GI50: < 14.6 nM (active)
RXF 393
  GI50: 190 nM (active)
XF498
  GI50: < 10 nM (active)
SF-539
  GI50: 42.1 nM (active)
SF-268
  GI50: 72.6 nM (active)
NCI-H23
  GI50: 60.5 nM (active)
HCC 2998
  GI50: 139 nM (active)
M14
  GI50: 97.5 nM (active)
RPMI-8226
  GI50: 24 nM (active)
BT-549
  GI50: 270 nM (active)
OVCAR-3
  GI50: 338 nM (active)
SK-MEL-2
  GI50: 161 nM (active)
SN12C
  GI50: 37.8 nM (active)
LXFL 529
  GI50: 77.6 nM (active)
Malme-3M
  GI50: 53.2 nM (active)
TK-10
  GI50: 838 nM (active)
SNB-78
  GI50: 207 nM (active)
ACHN
  GI50: 24.2 nM (active)
SR
  GI50: < 15.7 nM (active)
UACC-62
  GI50: 46.1 nM (active)
HT-29
  GI50: 55.9 nM (active)
NCI-H522
  GI50: 76 nM (active)
RXF 631
  GI50: 32.9 nM (active)
OVCAR-8
  GI50: 28.9 nM (active)
IGROV-1
  GI50: 108 nM (active)
SK-MEL-28
  GI50: 315 nM (active)
KM12
  GI50: 96.8 nM (active)
OVCAR-5
  GI50: 189 nM (active)
DMS-273
  GI50: 12.2 nM (active)
DLD-1
  GI50: 66.7 nM (active)
MDA-MB-231
  GI50: 474 nM (active)
A549
  GI50: 26.9 nM (active)
A498
  GI50: 116 nM (active)
MDA-MB-435
  GI50: 267 nM (active)
DU-145
  GI50: 264 nM (active)
OVCAR-4
  GI50: 458 nM (active)
PC-3
  GI50: 153 nM (active)
786-0
  GI50: 32.7 nM (active)
HOP-62
  GI50: 23.4 nM (active)
UO-31
  GI50: 437 nM (active)
SK-OV-3
  GI50: 76.7 nM (active)
HOP-18
  GI50: 156 nM (active)
HCT-116
  GI50: 28.2 nM (active)
T47D
  GI50: 230 nM (active)
MCF7
  GI50: < 10 nM (active)
SK-MEL-5
  GI50: 36.2 nM (active)
CAKI-1
  GI50: 54 nM (active)
Hs-578T
  GI50: 138 nM (active)
K562
  GI50: 28.4 nM (active)
U-251
  GI50: 22.4 nM (active)
KM-20L2
  GI50: 148 nM (active)
HCT-15
  GI50: 1980 nM
UACC-257
  GI50: 282 nM (active)
HL-60
  GI50: < 16.3 nM (active)
SNB-19
  GI50: 45.2 nM (active)

## CC(=O)N(/N=C\c1ccc([N+](=O)[O-])cc1)c1ccccc1
SW-620
  GI50: > 100000 nM (inactive)
EKVX
  GI50: > 100000 nM (inactive)
COLO 205
  GI50: > 100000 nM (inactive)
SF-295
  GI50: > 100000 nM (inactive)
M19-MEL
  GI50: > 100000 nM (inactive)
SNB-75
  GI50: 48300 nM (inactive)
NCI-H460
  GI50: > 100000 nM (inactive)
HOP-92
  GI50: > 100000 nM (inactive)
LOX IMVI
  GI50: > 100000 nM (inactive)
NCI-H226
  GI50: > 100000 nM (inactive)
CCRF-CEM
  GI50: > 100000 nM (inactive)
XF498
  GI50: > 100000 nM (inactive)
SF-539
  GI50: > 100000 nM (inactive)
SF-268
  GI50: > 100000 nM (inactive)
NCI-H23
  GI50: > 100000 nM (inactive)
HCC 2998
  GI50: > 100000 nM (inactive)
M14
  GI50: > 100000 nM (inactive)
RPMI-8226
  GI50: > 100000 nM (inactive)
OVCAR-3
  GI50: > 100000 nM (inactive)
SK-MEL-2
  GI50: > 100000 nM (inactive)
SN12C
  GI50: > 100000 nM (inactive)
Malme-3M
  GI50: > 100000 nM (inactive)
TK-10
  GI50: > 100000 nM (inactive)
SNB-78
  GI50: > 100000 nM (inactive)
ACHN
  GI50: > 100000 nM (inactive)
UACC-62
  GI50: > 100000 nM (inactive)
HT-29
  GI50: > 100000 nM (inactive)
RXF 631
  GI50: > 100000 nM (inactive)
OVCAR-8
  GI50: > 100000 nM (inactive)
IGROV-1
  GI50: > 100000 nM (inactive)
SK-MEL-28
  GI50: > 100000 nM (inactive)
KM12
  GI50: > 100000 nM (inactive)
OVCAR-5
  GI50: > 100000 nM (inactive)
DMS-273
  GI50: > 100000 nM (inactive)
DLD-1
  GI50: > 100000 nM (inactive)
DMS-114
  GI50: 99800 nM (inactive)
A549
  GI50: > 100000 nM (inactive)
A498
  GI50: > 100000 nM (inactive)
OVCAR-4
  GI50: > 100000 nM (inactive)
786-0
  GI50: > 100000 nM (inactive)
HOP-62
  GI50: > 100000 nM (inactive)
UO-31
  GI50: 35900 nM (inactive)
SK-OV-3
  GI50: > 100000 nM (inactive)
HOP-18
  GI50: > 100000 nM (inactive)
HCT-116
  GI50: > 100000 nM (inactive)
SK-MEL-5
  GI50: > 100000 nM (inactive)
CAKI-1
  GI50: > 100000 nM (inactive)
K562
  GI50: > 100000 nM (inactive)
U-251
  GI50: > 100000 nM (inactive)
KM-20L2
  GI50: > 100000 nM (inactive)
HCT-15
  GI50: > 100000 nM
UACC-257
  GI50: > 100000 nM (inactive)
SNB-19
  GI50: > 100000 nM (inactive)

— ChEMBL document CHEMBL1201862, “PubChem BioAssay data set” (2004)
